Measurements from patent US8759104B2, “Cationic lipids” (The University Court of the University of Edinburgh, priority 2010, dated 2014).

These compounds were tested on HeLa cells (assay: Transfection of pEGFP-C1 reporter plasmid into HeLa cells, GFP expression by flow cytometry). Details: HeLa cells 48 h after transfection with reporter plasmid, flow cytometry.
Assay type: cell-based, human
Description: The corresponding cationic lipid (1 mM in methanol) were mixed in different proportions with DOPE (10 mg/mL in chloroform) and the organic solvent removed by evaporation in an oven (37° C.) overnight. The resultant thin films were then hydrated with PBS. The solutions were vortexed (10-20 s) and incubated at ambient temperature for 20 min. Plasmid DNA or siRNA solution (0.04 mg/mL in PBS or another isotonic solution) was subsequently added and the solution vortexed (10-20 s). The lipoplexes were incubated at room temperature for 20 min before being used.
Human HeLa cells were grown in RPMI supplemented with 4 mM glutamine, 10% FCS and 100 units/ml penicillin/streptomycin (RPMI-CM) until 80% confluence. HEK293 and B16F10 cells were grown in DMEM supplemented with 4 mM glutamine, 10% FCS and 100 units/ml penicillin/streptomycin (DMEM-CM) until 80% confluence. Cells were then suspended using trypsin/EDTA and counted. 2×10^4 cells in 150 μL of media per well were seeded in 96 well plates and incubated overnight. The day afterwards, the different lipoplex formulations were added. Each experiment was performed in quadruplicate, using Effectene® Transfection Reagent (Qiagen), Lipofectamine™ 2000 (Invitrogen) and Fugene (Roche) as positive controls and untreated cells as negative controls. After two days incubation at 37° C. and 5% CO2 (the change of media after transfection was not necessary), the green fluorescent protein (GFP) expression, as a consequence of transfecting the pEGFP-C1, was evidenced using a fluorescent microscope (Leica) and measured by flow cytometry. For the flow cytometry analysis, cells were washed twice with PBS, detached with trypsin/EDTA, harvested with 2% ferum bovine serum (FBS) in PBS, centrifuged and resuspended with 2% FBS in PBS and analyzed using a BD FACSaria flow cytometer. Transfection efficiency was measured as percentage of transfected cells.
Reagents that obtained greater than 50% transfection were also analyzed against HEK293 and B16F10 cell lines. Transfection results (+ percentages of transfection between 5-25%; ++ percentages of transfection between 25-50%; N.D. not determined). MTT toxicity assay results are indicated between brackets with 100% being cell viability of untreated cells.

Structure (SMILES)	Transfection results (percentage of transfected cells), HeLa
CCCCCCCCCCCCCCCC(=O)NCCCN(CCCNC(=O)CCCCCCCCCCCCCCC)C(=O)CCC(=O)N[C@@H](CCCNC(=N)N)C(N)=O.O=C(O)C(F)(F)F [Compound A1-Sp3-P]	+ (percentages of transfection between 5-25%)
CCCCCCCC/C=C\CCCCCCCC(=O)NCCN(CCNC(=O)CCCCCCC/C=C\CCCCCCCC)C(=O)CCC(=O)N[C@@H](CCCNC(=N)N)C(=O)N[C@@H](CCCNC(=N)N)C(N)=O.O=C(O)C(F)(F)F.O=C(O)C(F)(F)F [Compound A2-Sp1-O]	++ (percentages of transfection between 25-50%)
CCCCCCCCCCCCCCCCCCCCCCCC(=O)NCCN(CCNC(=O)CCCCCCCCCCCCCCCCCCCCCCC)C(=O)CCC(=O)N[C@@H](CCCNC(=N)N)C(N)=O.O=C(O)C(F)(F)F [Compound A1-Sp1-L]	+ (percentages of transfection between 5-25%)
CCCCCCCCCCCCCCCC(=O)NCCCN(CCCNC(=O)CCCCCCCCCCCCCCC)C(=O)/C=C\C(=O)N[C@@H](CCCNC(=N)N)C(=O)N[C@@H](CCCNC(=N)N)C(=O)N[C@@H](CCCNC(=N)N)C(N)=O.O=C(O)C(F)(F)F.O=C(O)C(F)(F)F.O=C(O)C(F)(F)F [Compound A3-Sp4-P]	+ (percentages of transfection between 5-25%)
CCCCCCCCCCCCCCCCCC(=O)NCCCN(CCCNC(=O)CCCCCCCCCCCCCCCCC)C(=O)CCC(=O)N[C@@H](CCCNC(=N)N)C(=O)N[C@@H](CCCNC(=N)N)C(=O)N[C@@H](CCCNC(=N)N)C(N)=O.O=C(O)C(F)(F)F.O=C(O)C(F)(F)F.O=C(O)C(F)(F)F [Compound A3-Sp3-S]	+ (percentages of transfection between 5-25%)
CCCCCCCCCCCCCCCC(=O)NCCCN(CCCNC(=O)CCCCCCCCCCCCCCC)C(=O)CCC(=O)N[C@@H](CCCNC(=N)N)C(=O)N[C@@H](CCCNC(=N)N)C(=O)N[C@@H](CCCNC(=N)N)C(N)=O.O=C(O)C(F)(F)F.O=C(O)C(F)(F)F.O=C(O)C(F)(F)F [Compound A3-Sp3-P]	++ (percentages of transfection between 25-50%)
CCCCCCCCCCCCCCCC(=O)NCCCN(CCCNC(=O)CCCCCCCCCCCCCCC)C(=O)/C=C\C(=O)N[C@@H](CCCNC(=N)N)C(N)=O.O=C(O)C(F)(F)F [Compound A1-Sp4-P]	+ (percentages of transfection between 5-25%)
CCCCCCCCCCCCCCCCCCCC(=O)NCCN(CCNC(=O)CCCCCCCCCCCCCCCCCCC)C(=O)CCC(=O)N[C@@H](CCCNC(=N)N)C(=O)N[C@@H](CCCNC(=N)N)C(=O)N[C@@H](CCCNC(=N)N)C(N)=O.O=C(O)C(F)(F)F.O=C(O)C(F)(F)F.O=C(O)C(F)(F)F [Compound A3-Sp1-A]	+ (percentages of transfection between 5-25%)
CCCCCCCCCCCCCCCCCCCCCCCC(=O)NCCN(CCNC(=O)CCCCCCCCCCCCCCCCCCCCCCC)C(=O)CCC(=O)N[C@@H](CCCNC(=N)N)C(=O)N[C@@H](CCCNC(=N)N)C(=O)N[C@@H](CCCNC(=N)N)C(N)=O.O=C(O)C(F)(F)F.O=C(O)C(F)(F)F.O=C(O)C(F)(F)F [Compound A3-Sp1-L]	+ (percentages of transfection between 5-25%)
CCCCCCCCCCCCCCCCCCCCCCCC(=O)NCCN(CCNC(=O)CCCCCCCCCCCCCCCCCCCCCCC)C(=O)CCC(=O)N[C@@H](CCCNC(=N)N)C(=O)N[C@@H](CCCNC(=N)N)C(N)=O.O=C(O)C(F)(F)F.O=C(O)C(F)(F)F [Compound A2-Sp1-L]	+ (percentages of transfection between 5-25%)
CCCCCCCCCCCCCCCCCC(=O)NCCCN(CCCNC(=O)CCCCCCCCCCCCCCCCC)C(=O)/C=C\C(=O)N[C@@H](CCCNC(=N)N)C(=O)N[C@@H](CCCNC(=N)N)C(=O)N[C@@H](CCCNC(=N)N)C(N)=O.O=C(O)C(F)(F)F.O=C(O)C(F)(F)F.O=C(O)C(F)(F)F [Compound A3-Sp4-S]	+ (percentages of transfection between 5-25%)
CCCCCCCCCCCCCCCCCC(=O)NCCCN(CCCNC(=O)CCCCCCCCCCCCCCCCC)C(=O)CCC(=O)N[C@@H](CCCNC(=N)N)C(=O)N[C@@H](CCCNC(=N)N)C(N)=O.O=C(O)C(F)(F)F.O=C(O)C(F)(F)F [Compound A2-Sp3-S]	+ (percentages of transfection between 5-25%)
CCCCCCCC/C=C\CCCCCCCC(=O)NCCCN(CCCNC(=O)CCCCCCC/C=C\CCCCCCCC)C(=O)CCC(=O)N[C@@H](CCCNC(=N)N)C(N)=O.O=C(O)C(F)(F)F [Compound A1-Sp3-O]	++ (percentages of transfection between 25-50%)
CCCCCCCCCCCCCCCCCCCCCCCC(=O)NCCCN(CCCNC(=O)CCCCCCCCCCCCCCCCCCCCCCC)C(=O)CCC(=O)N[C@@H](CCCNC(=N)N)C(=O)N[C@@H](CCCNC(=N)N)C(=O)N[C@@H](CCCNC(=N)N)C(N)=O.O=C(O)C(F)(F)F.O=C(O)C(F)(F)F.O=C(O)C(F)(F)F [Compound A3-Sp3-L]	+ (percentages of transfection between 5-25%)
CCCCCCCCCCCCCCCCCCCCCCCC(=O)NCCCN(CCCNC(=O)CCCCCCCCCCCCCCCCCCCCCCC)C(=O)/C=C\C(=O)N[C@@H](CCCNC(=N)N)C(=O)N[C@@H](CCCNC(=N)N)C(=O)N[C@@H](CCCNC(=N)N)C(N)=O.O=C(O)C(F)(F)F.O=C(O)C(F)(F)F.O=C(O)C(F)(F)F [Compound A3-Sp4-L]	++ (percentages of transfection between 25-50%)
CCCCCCCCCCCCCCCCCC(=O)NCCCN(CCCNC(=O)CCCCCCCCCCCCCCCCC)C(=O)CCC(=O)N[C@@H](CCCNC(=N)N)C(N)=O.O=C(O)C(F)(F)F [Compound A1-Sp3-S]	+ (percentages of transfection between 5-25%)
CCCCCCCCCCCCCCCCCCCC(=O)NCCCN(CCCNC(=O)CCCCCCCCCCCCCCCCCCC)C(=O)/C=C\C(=O)N[C@@H](CCCNC(=N)N)C(=O)N[C@@H](CCCNC(=N)N)C(N)=O.O=C(O)C(F)(F)F.O=C(O)C(F)(F)F [Compound A2-Sp4-A]	+ (percentages of transfection between 5-25%)
CCCCCCCC/C=C\CCCCCCCC(=O)NCCCN(CCCNC(=O)CCCCCCC/C=C\CCCCCCCC)C(=O)CCC(=O)N[C@@H](CCCNC(=N)N)C(=O)N[C@@H](CCCNC(=N)N)C(N)=O.O=C(O)C(F)(F)F.O=C(O)C(F)(F)F [Compound A2-Sp3-O]	++ (percentages of transfection between 25-50%)
CCCCCCCCCCCCCCCCCC(=O)NCCN(CCNC(=O)CCCCCCCCCCCCCCCCC)C(=O)CCC(=O)N[C@@H](CCCNC(=N)N)C(=O)N[C@@H](CCCNC(=N)N)C(N)=O.O=C(O)C(F)(F)F.O=C(O)C(F)(F)F [Compound A2-Sp1-S]	+ (percentages of transfection between 5-25%)
CCCCCCCCCCCCCCCCCCCCCCCC(=O)NCCCN(CCCNC(=O)CCCCCCCCCCCCCCCCCCCCCCC)C(=O)/C=C\C(=O)N[C@@H](CCCNC(=N)N)C(=O)N[C@@H](CCCNC(=N)N)C(N)=O.O=C(O)C(F)(F)F.O=C(O)C(F)(F)F [Compound A2-Sp4-L]	+ (percentages of transfection between 5-25%)
CCCCCCCCCCCCCCCCCCCCCCCC(=O)NCCCN(CCCNC(=O)CCCCCCCCCCCCCCCCCCCCCCC)C(=O)CCC(=O)N[C@@H](CCCNC(=N)N)C(=O)N[C@@H](CCCNC(=N)N)C(N)=O.O=C(O)C(F)(F)F.O=C(O)C(F)(F)F [Compound A2-Sp3-L]	+ (percentages of transfection between 5-25%)
CCCCCCCCCCCCCCCCCC(=O)NCCN(CCNC(=O)CCCCCCCCCCCCCCCCC)C(=O)/C=C\C(=O)N[C@@H](CCCNC(=N)N)C(=O)N[C@@H](CCCNC(=N)N)C(N)=O.O=C(O)C(F)(F)F.O=C(O)C(F)(F)F [Compound A2-Sp2-S]	++ (percentages of transfection between 25-50%)
CCCCCCCC/C=C\CCCCCCCC(=O)NCCCN(CCCNC(=O)CCCCCCC/C=C\CCCCCCCC)C(=O)/C=C\C(=O)N[C@@H](CCCNC(=N)N)C(=O)N[C@@H](CCCNC(=N)N)C(=O)N[C@@H](CCCNC(=N)N)C(N)=O.O=C(O)C(F)(F)F.O=C(O)C(F)(F)F.O=C(O)C(F)(F)F [Compound A3-Sp4-O]	+ (percentages of transfection between 5-25%)
CCCCCCCCCCCCCCCCCCCCCCCC(=O)NCCCN(CCCNC(=O)CCCCCCCCCCCCCCCCCCCCCCC)C(=O)/C=C\C(=O)N[C@@H](CCCNC(=N)N)C(N)=O.O=C(O)C(F)(F)F [Compound A1-Sp4-L]	+ (percentages of transfection between 5-25%)
CCCCCCCCCCCCCCCCCCCC(=O)NCCCN(CCCNC(=O)CCCCCCCCCCCCCCCCCCC)C(=O)CCC(=O)N[C@@H](CCCNC(=N)N)C(=O)N[C@@H](CCCNC(=N)N)C(=O)N[C@@H](CCCNC(=N)N)C(N)=O.O=C(O)C(F)(F)F.O=C(O)C(F)(F)F.O=C(O)C(F)(F)F [Compound A3-Sp3-A]	+ (percentages of transfection between 5-25%)
